According to patent US20250353873A1, “COMPOUNDS AND METHODS FOR MODULATING APOE EXPRESSION” (Ionis Pharmaceuticals, Inc., priority 2024, published 2025):
Where “and” joins values, the source holds several entries; their conditions need not be identical. Identical values can stand only once. Strand notation (5' to 3'): a small letter for the sugar, then the base; units joined by * are phosphorothioate-linked, units joined directly phosphodiester-linked; [ ] holds rarer units or linkages, { } end groups; capitals alone tell only the bases. [ms] = mesyl phosphoramidate linkage; e = 2'-O-(2-methoxyethyl) (MOE); k = constrained ethyl (cEt); [5mC] = 5-methylcytosine; d = 2'-deoxy (DNA)

How the values were obtained:
human APOE RNA [1] = assay: Dose-dependent inhibition of human APOE RNA in HepG2 cells, electroporation, 50,000 cells per well, RT-PCR normalized to GAPDH (Example 4, Tables 8-10); format: cell-based
Method in brief: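 Readout is percent APOE RNA versus untreated controls, measured by RT-PCR (primer probe set RTS3073) and normalized to human GAPDH. Modified oligonucleotides were delivered by electroporation at varying doses into HepG2 cells plated at 50,000 per well.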

human APOE RNA [2] = assay: Dose-dependent inhibition of human APOE RNA in differentiated SH-SY5Y cells, free uptake, 5 days (Example 5); format: cell-based
Method in brief: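 APOE RNA, measured by RTS3073 primer probe set and normalized to human PPIA, is reported as % of untreated control cells, with IC50 fitted. Cells were differentiated SH-SY5Y at 10,000/well, given modified oligonucleotide at several concentrations by free uptake for 5 days.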

human APOE RNA [3] = assay: Activity in APOE C57BL/6NTac-Apoeem7250 knock-in mice, single ICV bolus, 4 weeks (Example 10); format: in vivo; conditions: single ICV bolus 300 μg, 4 weeks post treatment, normalized to mouse Ppia
Method in brief: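 Human APOE RNA, quantified by real-time RT-PCR with RTS3073 and normalized to mouse Ppia, was read in cortical brain and spinal cord 4 weeks post dosing. Dosing was a single ICV bolus of 300 μg per knock-in mouse; values are % of PBS-treated animals.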

human APOE RNA [4] = assay: Activity in APOE C57BL/6NTac-Apoeem7250 knock-in mice, single ICV bolus, 8 weeks (Example 11); format: in vivo
Method in brief: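 Cortical and spinal cord human APOE RNA quantified by RT-qPCR 8 weeks after a single 300 μg ICV dose in knock-in mice, Ppia-normalized. Values are percent of levels in PBS-treated animals.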

human APOE RNA [5] = assay: Activity in APOE C57BL/6NTac-Apoeem7250 knock-in mice, single ICV bolus, 16 weeks (Example 12); format: in vivo; conditions: single ICV bolus 300 μg, 16 weeks post treatment, normalized to mouse Ppia
Method in brief: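 A single 300 μg intracerebroventricular dose was given, with PBS-treated mice as reference; cortical and spinal cord tissue was taken 16 weeks later. RT-qPCR quantified human APOE RNA, Ppia-normalized, expressed relative to PBS animals (% control).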

human APOE RNA [6] = assay: Activity in APOE C57BL/6NTac-Apoeem7250 knock-in mice, single ICV bolus, 20 weeks (Example 13); format: in vivo; conditions: single ICV bolus 300 μg, 20 weeks post treatment, normalized to mouse Ppia
Method in brief: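 Cortical and spinal cord RNA was assayed by real-time RT-PCR for human APOE, normalized to mouse Ppia and reported as percent of PBS controls. Tissue was taken twenty weeks after one 300 μg intracerebroventricular bolus in APOE knock-in mice, 4 per group.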

In the case of “Aes^mCeoTeoTesGesGksTdsGdzAdzAdzTds^mCdsTdsTdsTdsAdzTksTksAesAe (eA*e[5mC]eTeT*eG*kG*dT*dG[ms]dA[ms]dA[ms]dT*d[5mC]*dT*dT*dT*dA[ms]kT*kT*eA*eA) [Compound No. 1757576]”, the “APOE RNA (% UTC)” value (human APOE RNA [1]; 5 nM, HepG2, electroporation, 16-hour treatment) is reported as 86 % UTC, the “APOE RNA (% UTC)” value (human APOE RNA [1]; 13 nM, HepG2, electroporation, 16-hour treatment) is reported as 74 % UTC and the “APOE RNA (% UTC)” value (human APOE RNA [1]; 33 nM, HepG2, electroporation, 16-hour treatment) is reported as 80 % UTC. For the same substance, the “APOE RNA (% UTC)” value (human APOE RNA [1]; 82 nM, HepG2, electroporation, 16-hour treatment) was 84 % UTC, the “APOE RNA (% UTC)” value (human APOE RNA [1]; 205 nM, HepG2, electroporation, 16-hour treatment) was 74 % UTC and the “APOE RNA (% UTC)” value (human APOE RNA [1]; 512 nM, HepG2, electroporation, 16-hour treatment) was 61 % UTC. For the same substance, the “APOE RNA (% UTC)” value (human APOE RNA [1]; 1,280 nM, HepG2, electroporation, 16-hour treatment) was 45 % UTC, the “APOE RNA (% UTC)” value (human APOE RNA [1]; 3,200 nM, HepG2, electroporation, 16-hour treatment) was 32 % UTC and the “APOE RNA (% UTC)” value (human APOE RNA [1]; 8,000 nM, HepG2, electroporation, 16-hour treatment) was 22 % UTC. The “APOE RNA (% UTC)” value (human APOE RNA [1]; 20,000 nM, HepG2, electroporation, 16-hour treatment) was 7 % UTC, the IC50 (human APOE RNA [1]; HepG2, electroporation, 16-hour treatment) was 820 nM and the “APOE RNA (% UTC) 5 nM” value (human APOE RNA [1]; HepG2 cells, electroporation, 24-hour treatment, 5 nM, Table 8) was 86 % UTC. For the same substance, the “APOE RNA (% UTC) 13 nM” value (human APOE RNA [1]; HepG2 cells, electroporation, 24-hour treatment, 13 nM, Table 8) was 81 % UTC, the “APOE RNA (% UTC) 33 nM” value (human APOE RNA [1]; HepG2 cells, electroporation, 24-hour treatment, 33 nM, Table 8) was 63 % UTC and the “APOE RNA (% UTC) 82 nM” value (human APOE RNA [1]; HepG2 cells, electroporation, 24-hour treatment, 82 nM, Table 8) was 67 % UTC. For the same substance, the “APOE RNA (% UTC) 205 nM” value (human APOE RNA [1]; HepG2 cells, electroporation, 24-hour treatment, 205 nM, Table 8) was 46 % UTC, the “APOE RNA (% UTC) 512 nM” value (human APOE RNA [1]; HepG2 cells, electroporation, 24-hour treatment, 512 nM, Table 8) was 23 % UTC and the “APOE RNA (% UTC) 1,280 nM” value (human APOE RNA [1]; HepG2 cells, electroporation, 24-hour treatment, 1,280 nM, Table 8) was 24 % UTC. For the same substance, the “APOE RNA (% UTC) 3,200 nM” value (human APOE RNA [1]; HepG2 cells, electroporation, 24-hour treatment, 3,200 nM, Table 8) was 11 % UTC, the “APOE RNA (% UTC) 8,000 nM” value (human APOE RNA [1]; HepG2 cells, electroporation, 24-hour treatment, 8,000 nM, Table 8) was 15 % UTC and the “APOE RNA (% UTC) 20,000 nM” value (human APOE RNA [1]; HepG2 cells, electroporation, 24-hour treatment, 20,000 nM, Table 8) was 2 % UTC. For the same substance, the IC50 (human APOE RNA [1]; reduction of human APOE RNA, HepG2 cells, electroporation, 24-hour treatment, Table 8) was 140 nM, the “APOE RNA (% UTC)” value (human APOE RNA [2]; 5 nM, 5 days (Table 13)) was 75 % UTC and the “APOE RNA (% UTC)” value (human APOE RNA [2]; 5 nM, 5 days (Table 14)) was 68 % UTC. For the same substance, the “APOE RNA (% UTC)” value (human APOE RNA [2]; 13 nM, 5 days (Table 13)) was 71 % UTC, the “APOE RNA (% UTC)” value (human APOE RNA [2]; 13 nM, 5 days (Table 14)) was 51 % UTC and the “APOE RNA (% UTC)” value (human APOE RNA [2]; 33 nM, 5 days (Table 13)) was 45 % UTC. The “APOE RNA (% UTC)” value (human APOE RNA [2]; 33 nM, 5 days (Table 14)) was 44 % UTC, the “APOE RNA (% UTC)” value (human APOE RNA [2]; 82 nM, 5 days (Table 13)) was 42 % UTC and the “APOE RNA (% UTC)” value (human APOE RNA [2]; 82 nM, 5 days (Table 14)) was 35 % UTC. The “APOE RNA (% UTC)” value (human APOE RNA [2]; 205 nM, 5 days (Table 13)) was 43 % UTC, the “APOE RNA (% UTC)” value (human APOE RNA [2]; 205 nM, 5 days (Table 14)) was 32 % UTC and the “APOE RNA (% UTC)” value (human APOE RNA [2]; 512 nM, 5 days (Table 13)) was 31 % UTC. For the same substance, the “APOE RNA (% UTC)” value (human APOE RNA [2]; 512 nM, 5 days (Table 14)) was 32 % UTC, the “APOE RNA (% UTC)” value (human APOE RNA [2]; 1,280 nM, 5 days (Table 13)) was 29 % UTC and the “APOE RNA (% UTC)” value (human APOE RNA [2]; 1,280 nM, 5 days (Table 14)) was 27 % UTC. For the same substance, the “APOE RNA (% UTC)” value (human APOE RNA [2]; 3,200 nM, 5 days (Table 13)) was 27 % UTC, the “APOE RNA (% UTC)” value (human APOE RNA [2]; 3,200 nM, 5 days (Table 14)) was 23 % UTC and the “APOE RNA (% UTC)” value (human APOE RNA [2]; 8,000 nM, 5 days (Table 13)) was 12 % UTC. For the same substance, the “APOE RNA (% UTC)” value (human APOE RNA [2]; 8,000 nM, 5 days (Table 14)) was 17 % UTC, the “APOE RNA (% UTC)” value (human APOE RNA [2]; 20,000 nM, 5 days (Table 13)) was 18 % UTC and the “APOE RNA (% UTC)” value (human APOE RNA [2]; 20,000 nM, 5 days (Table 14)) was 6 % UTC. For the same substance, the IC50 (human APOE RNA [2]; 5 days (Table 13)) was 70 nM, the IC50 (human APOE RNA [2]; 5 days (Table 14)) was 20 nM and the “APOE RNA (% control) Cortex” value (human APOE RNA [3]; cortex) was 29 % control. For the same substance, the “APOE RNA (% control) Spinal Cord” value (human APOE RNA [3]; spinal cord) was 23 % control, the “reduction of human APOE RNA in the cortex” value (human APOE RNA [4]; APOE knock-in mouse model, 8 weeks post administration, assay of Example 11) was 79% and the “APOE RNA (% control) Cortex” value (human APOE RNA [4]; cortex, single ICV bolus 300 μg, 8 weeks post treatment, normalized to mouse Ppia) was 29 % control and 21 % control. The “APOE RNA (% control) Spinal Cord” value (human APOE RNA [4]; spinal cord, single ICV bolus 300 μg, 8 weeks post treatment, normalized to mouse Ppia) was 15 % control and 10 % control, the “APOE RNA (% control) Cortex” value (human APOE RNA [5]; cortex) was 45 % control and the “APOE RNA (% control) Spinal Cord” value (human APOE RNA [5]; spinal cord) was 14 % control. The “APOE RNA (% control) Cortex” value (human APOE RNA [6]; cortex) was 32 % control and the “APOE RNA (% control) Spinal Cord” value (human APOE RNA [6]; spinal cord) was 31 % control.
